SMILES strings stand for the structures.

In experiment [1] the target is T1, Cholinesterases; ACHE & BCHE (Homo sapiens) (UniProt P06276+P22303). The experiment is described as follows: Selectivity ratio of IC50 for AChE (unknown origin) to IC50 for BChE (unknown origin) by Ellman's kinetic method. (In general: DTNB colorimetry detects thiols as they appear.)
The target in experiment [2] is Cholinesterase (Homo sapiens, UniProt P06276). The experiment is described as follows: Inhibition of BChE (unknown origin) using acetylthiocholine as substrate assessed as reduction of DTNB to TNB preincubated for 20 mins followed by addition of substrate by Ellman's kinetic method.
Experiment [3] concerns the target T1, Cholinesterases; ACHE & BCHE (Homo sapiens). Description: Selectivity ratio of IC50 for BChE (unknown origin) to IC50 for AChE (unknown origin) by Ellman's kinetic method.
Experiment [4] concerns the target Acetylcholinesterase (Homo sapiens, UniProt P22303). Description: Inhibition of AChE (unknown origin) using acetylthiocholine as substrate assessed as reduction of DTNB to TNB preincubated for 20 mins followed by addition of substrate by Ellman's kinetic method.

Sequence of Acetylcholinesterase (P22303 whole entry): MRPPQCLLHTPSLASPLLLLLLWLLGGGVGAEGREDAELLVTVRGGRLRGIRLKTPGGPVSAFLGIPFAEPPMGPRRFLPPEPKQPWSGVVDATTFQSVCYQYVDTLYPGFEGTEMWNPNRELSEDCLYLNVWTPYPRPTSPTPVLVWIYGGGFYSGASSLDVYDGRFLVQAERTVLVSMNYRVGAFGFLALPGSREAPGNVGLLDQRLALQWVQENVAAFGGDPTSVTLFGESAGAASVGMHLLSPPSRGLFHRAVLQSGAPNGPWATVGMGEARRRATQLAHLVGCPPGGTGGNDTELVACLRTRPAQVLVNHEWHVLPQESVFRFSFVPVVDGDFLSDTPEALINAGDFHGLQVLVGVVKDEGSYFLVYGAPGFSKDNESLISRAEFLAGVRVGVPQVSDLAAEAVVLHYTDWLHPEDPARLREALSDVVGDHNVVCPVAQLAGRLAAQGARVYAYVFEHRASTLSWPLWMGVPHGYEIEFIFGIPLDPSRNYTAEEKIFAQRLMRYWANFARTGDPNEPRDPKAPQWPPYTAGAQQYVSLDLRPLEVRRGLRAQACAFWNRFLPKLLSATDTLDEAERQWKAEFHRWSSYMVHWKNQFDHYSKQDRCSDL
T1 sequence (P06276 whole entry, looked up): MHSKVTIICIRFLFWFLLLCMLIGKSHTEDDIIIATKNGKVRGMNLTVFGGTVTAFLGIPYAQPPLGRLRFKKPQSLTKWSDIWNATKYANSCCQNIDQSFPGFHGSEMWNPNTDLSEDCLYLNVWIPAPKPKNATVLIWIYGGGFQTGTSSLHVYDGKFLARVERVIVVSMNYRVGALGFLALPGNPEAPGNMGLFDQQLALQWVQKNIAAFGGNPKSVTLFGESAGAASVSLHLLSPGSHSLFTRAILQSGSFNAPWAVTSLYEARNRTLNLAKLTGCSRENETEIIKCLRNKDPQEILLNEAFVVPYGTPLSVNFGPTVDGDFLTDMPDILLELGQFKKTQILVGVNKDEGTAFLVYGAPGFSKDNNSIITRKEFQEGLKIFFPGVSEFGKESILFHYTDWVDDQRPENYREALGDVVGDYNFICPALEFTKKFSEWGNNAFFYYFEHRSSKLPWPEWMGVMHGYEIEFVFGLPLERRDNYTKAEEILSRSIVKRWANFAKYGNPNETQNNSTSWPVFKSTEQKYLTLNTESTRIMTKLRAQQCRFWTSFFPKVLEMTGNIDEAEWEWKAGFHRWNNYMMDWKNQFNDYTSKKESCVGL
T1 sequence (P22303 whole entry, looked up): as the sequence (P22303 whole entry) above
Sequence of Cholinesterase (P06276 whole entry): as the sequence (P06276 whole entry, looked up) above

As to `CC1(C)CNC2=C([N+](=O)[O-])C3(C(=O)Nc4ccc([N+](=O)[O-])cc43)C(C#N)=C(N)N2C1` (stereo not drawn), the Ratio IC50 in experiment [1] was found to be 0.13; in experiment [3], 7.71. The figures for the IC50 in experiment [2] and in experiment [4] were 11.9 µM and 1.54 µM, respectively.

For the compound `N#CC1=C(N)N2CCCNC2=C([N+](=O)[O-])C12C(=O)Nc1ccc(F)cc12` (stereo not drawn), the Ratio IC50 came to 0.029 in experiment [1] and 35 in experiment [3]. For the same compound, the IC50 in experiment [2] is 14.7 µM; in experiment [4], 0.42 µM.

Regarding `N#CC1=C(N)N(Cc2ccccc2)C(NCc2ccccc2)=C([N+](=O)[O-])C12C(=O)Nc1ccccc12` (stereo not drawn), the Ratio IC50 came to 0.259 in experiment [1] and 3.86 in experiment [3]. Moreover, the concentration for half-maximal inhibition (IC50) was determined as 15.3 µM in experiment [2] and 3.96 µM in experiment [4].

For `Cc1ccc2c(c1)C1(C(=O)N2)C(C#N)=C(N)N(Cc2ccccc2)C(NCc2ccccc2)=C1[N+](=O)[O-]` (stereo not drawn), the values for the Ratio IC50 in experiment [1] and in experiment [3] were 0.275 and 3.64, respectively. The IC50 turned out to be 13.5 µM in experiment [2] and 3.71 µM in experiment [4].

For `N#CC1=C(N)N2CCNC2=C([N+](=O)[O-])C12C(=O)Nc1ccc([N+](=O)[O-])cc12` (stereo not drawn), the Ratio IC50 in experiment [1] is 0.23; in experiment [3], 4.34. The concentration for half-maximal inhibition (IC50) in experiment [2] amounted to 14.1 µM; in experiment [4], 3.24 µM.

For the compound `N#CC1=C(N)N(Cc2ccccc2)C(NCc2ccccc2)=C([N+](=O)[O-])C12C(=O)Nc1ccc(F)cc12` (stereo not drawn), the Ratio IC50 amounted to 0.235 in experiment [1] and 4.26 in experiment [3]. The IC50 amounted to 15.1 µM in experiment [2] and 3.54 µM in experiment [4].

With `N#CC1=C(N)N2CCCNC2=C([N+](=O)[O-])C12C(=O)Nc1ccccc12` (stereo not drawn), the Ratio IC50 is 0.114 in experiment [1] and 8.76 in experiment [3]. Also, the IC50 in experiment [2] amounted to 8.93 µM; in experiment [4], 1.02 µM.

With `N#CC1=C(N)N(Cc2ccccc2)C(NCc2ccccc2)=C([N+](=O)[O-])C12C(=O)c1cccc3cccc2c13` (stereo not drawn), the Ratio IC50 was determined as 0.25 in experiment [1] and 4 in experiment [3]. For the same compound, the IC50 in experiment [2] stood at 23.8 µM; in experiment [4], 5.96 µM.

With `CC1(C)CNC2=C([N+](=O)[O-])C3(C(=O)Nc4ccccc43)C(C#N)=C(N)N2C1` (stereo not drawn), the Ratio IC50 in experiment [1] came out at 0.12; in experiment [3], 8.34. Besides, the concentration for half-maximal inhibition (IC50) in experiment [2] is 10.4 µM; in experiment [4], 1.25 µM.

Turning to `Cc1ccc2c(c1)C1(C(=O)N2)C(C#N)=C(N)N2CCNC2=C1[N+](=O)[O-]` (stereo not drawn), the results for the Ratio IC50 in experiment [1] and in experiment [3] were 0.238 and 4.21, respectively. Moreover, the IC50 in experiment [2] amounted to 16.2 µM; in experiment [4] it was 3.86 µM.

On to `N#CC1=C(N)N2CCCNC2=C([N+](=O)[O-])C12C(=O)Nc1ccc([N+](=O)[O-])cc12` (stereo not drawn), for which the Ratio IC50 stood at 0.092 in experiment [1] and 10.8 in experiment [3]. Also, the IC50 turned out to be 12.4 µM in experiment [2] and 1.15 µM in experiment [4].

As for `COc1ccc2c3c1O[C@H]1CC(O)CC[C@@]31CCN(C)C2` (stereo partly drawn), the Ratio IC50 amounted to 0.196 in experiment [1] and 5.12 in experiment [3].

With `N#CC1=C(N)N2CCNC2=C([N+](=O)[O-])C12C(=O)Nc1ccccc12` (stereo not drawn), the Ratio IC50 in experiment [1] was 0.36; in experiment [3] it was 2.77. Also, the IC50 in experiment [2] came to 13.5 µM; in experiment [4], 4.85 µM.

As for `N#CC1=C(N)N2CCCNC2=C([N+](=O)[O-])C12C(=O)c1ccc(Br)c3c(Br)ccc2c13` (stereo not drawn), the Ratio IC50 in experiment [1] amounted to 0.272; in experiment [3], 3.68. Also, the IC50 in experiment [2] is 24.7 µM; in experiment [4], 6.71 µM.

In the case of `N#CC1=C(N)N2CCNC2=C([N+](=O)[O-])C12C(=O)c1cccc3cccc2c13` (stereo not drawn), the results for the Ratio IC50 in experiment [1] and in experiment [3] were 0.298 and 3.36, respectively. In addition, the IC50 in experiment [2] was 23.8 µM; in experiment [4], 7.08 µM.

For the compound `N#CC1=C(N)N(Cc2ccccc2)C(NCc2ccccc2)=C([N+](=O)[O-])C12C(=O)c1ccc(Br)c3c(Br)ccc2c13` (stereo not drawn), the values for the Ratio IC50 in experiment [1] and in experiment [3] were 0.235 and 4.26, respectively. Further, the IC50 in experiment [2] came to 26.6 µM; in experiment [4], 6.24 µM.

As for `CC1(C)CNC2=C([N+](=O)[O-])C3(C(=O)Nc4ccc(F)cc43)C(C#N)=C(N)N2C1` (stereo not drawn), the Ratio IC50 in experiment [1] is 0.067; in experiment [3], 14.9. The IC50 in experiment [2] was 15.9 µM; in experiment [4] it was 1.07 µM.

For `Cc1ccc2c(c1)C1(C(=O)N2)C(C#N)=C(N)N2CCCNC2=C1[N+](=O)[O-]` (stereo not drawn), the Ratio IC50 in experiment [1] is 0.076; in experiment [3], 13.1. In addition, the figures for the IC50 in experiment [2] and in experiment [4] were 12.3 µM and 0.94 µM, respectively.

For the compound `N#CC1=C(N)N2CCNC2=C([N+](=O)[O-])C12C(=O)c1ccc(Br)c3c(Br)ccc2c13` (stereo not drawn), the Ratio IC50 in experiment [1] came to 0.245; in experiment [3], 4.09. In addition, the IC50 in experiment [2] worked out at 26 µM; in experiment [4], 6.37 µM.

On to `Cc1ccc2c(c1)C1(C(=O)N2)C(C#N)=C(N)N2CC(C)(C)CNC2=C1[N+](=O)[O-]` (stereo not drawn), for which the figures for the Ratio IC50 in experiment [1] and in experiment [3] were 0.095 and 10.6, respectively. Moreover, the IC50 worked out at 14.7 µM in experiment [2] and 1.39 µM in experiment [4].

For the compound `CC1(C)CNC2=C([N+](=O)[O-])C3(C(=O)c4ccc(Br)c5c(Br)ccc3c45)C(C#N)=C(N)N2C1` (stereo not drawn), the Ratio IC50 was 0.251 in experiment [1] and 3.98 in experiment [3]. The 50% inhibitory concentration (IC50) in experiment [2] is 23.8 µM; in experiment [4] it was 5.98 µM.

For the compound `N#CC1=C(N)N(Cc2ccccc2)C(NCc2ccccc2)=C([N+](=O)[O-])C12C(=O)Nc1ccc([N+](=O)[O-])cc12` (stereo not drawn), the Ratio IC50 worked out at 0.225 in experiment [1] and 4.44 in experiment [3]. The values for the IC50 in experiment [2] and in experiment [4] were 15 µM and 3.37 µM, respectively.

As for `CC1(C)CNC2=C([N+](=O)[O-])C3(C(=O)c4cccc5cccc3c45)C(C#N)=C(N)N2C1` (stereo not drawn), the results for the Ratio IC50 in experiment [1] and in experiment [3] were 0.303 and 3.3, respectively. The values for the concentration for half-maximal inhibition (IC50) in experiment [2] and in experiment [4] were 25.4 µM and 7.71 µM, respectively.

In the case of `N#CC1=C(N)N2CCNC2=C([N+](=O)[O-])C12C(=O)Nc1ccc(F)cc12` (stereo not drawn), the Ratio IC50 in experiment [1] is 0.195; in experiment [3], 5.12. For the same compound, the results for the IC50 in experiment [2] and in experiment [4] were 16.8 µM and 3.29 µM, respectively.

`N#CC1=C(N)N2CCCNC2=C([N+](=O)[O-])C12C(=O)c1cccc3cccc2c13` (stereo not drawn): the Ratio IC50 is 0.252 in experiment [1] and 3.96 in experiment [3]. Besides, the IC50 in experiment [2] stood at 26.1 µM; in experiment [4], 6.59 µM.

A word on the IC50: it is the concentration at which inhibition is half-maximal.

(Values after ChEMBL document CHEMBL3763108, “Application of PEG-400 as a green biodegradable polymeric medium for the catalyst-free synthesis of spiro-dihydropyridines and their use as acetyl and butyrylcholinesterase inhibitors” (Bioorg Med Chem, 2016).)
